From publication PMC12668310, “High‐Throughput Synthesis and Screening of a Cyanimide Library Identifies Selective Inhibitors of ISG15‐Specific Protease mUSP18” (Angewandte Chemie (International Ed. in English), 2025)

How the values were obtained:
[1] = system: cellular ISGylation in EL4 cells; assay: ISGylation accumulation in mouse IFN-β-stimulated EL4 cells (anti-mISG15 western blot); assay type: cell-based; details: 4 h treatment; for effect on cellular ISGylation: anti-mISG15 blot
Procedure: Figure 6 Inhibition of murine USP18 activity in living cells. a) Gel‐based ABPP potency assessment using a Rho‐mISG15ct‐PA probe in HEK293T cells overexpressing Flag‐mUSP18. At 24 h following transfection, cells were incubated with DMSO or increasing concentrations of indicated inhibitors for 4 h, lysed, and treated with Rho‐mISG15ct‐PA probe. Top panel: fluorescence scan. Middle panel: anti‐Flag western blot. Bottom panel: anti‐GAPDH western blot confirms equal loading. b) Accumulation of ISGylation in mouse IFN‐β‐stimulated EL4 cells. At 24 h following mouse IFN‐β treatment, cells were incubated with DMSO or increasing concentrations of indicated inhibitors for 4 h, lysed, and treated with Rho‐mISG15ct‐PA probe. Top panel: anti‐mISG15 western blot. Middle panel: fluorescence scan. Bottom panel: anti‐β‐actin western blot confirms equal loading.
Ultimately, we were interested in whether USP18 inhibitor treatment could result in a relevant phenotype in cells. USP18 is the major deISGylase to remove ISG15 from target proteins, and genetic inactivation of USP18 isopeptidase activity leads to enhanced ISGylation in vivo and in cells.^[ [26] ^] We therefore examined whether the USP18 inhibitors enhance cellular ISGylation. Accordingly, EL4 cells were stimulated with IFN‐β to induce the ISG15 machinery, prior to treatment with the inhibitors. After cell lysis and SDS‐PAGE, ISGylated proteins were stained by immunoblotting with an ISG15 antibody (Figure 6b, top panel). […] To confirm inhibition of endogenous USP18 in these experiments, samples were post‐lysis treated with Rho‐mISG15ct‐PA probe.
Generation of ISGylation and in-cell inhibition assay
Mouse EL4 cells were stimulated with 300 U/mL mouse IFN-β. At 24 hours following stimulation, cells were incubated with indicated compounds at the indicated final concentrations at 37 °C for 4 hours, then washed twice with PBS and harvested for further […]
Activity-based probe labelling
The in-cell inhibition of DUBs and mUSP18 was assessed using activity-based probe labelling assays. In brief, cell pellets were resuspended in HR buffer (50 mM Tris-HCl, 5 mM MgCl 2, 250 mM sucrose, 2 mM TCEP and a Protease inhibitor tablet (Roche), pH 7.4), and lysed by sonication (Bioruptor, Diagenode, high intensity for 10 minutes with an ON/OFF cycle of 30 seconds) at 4°C. 40 μg clarified cell lysate was incubated with Rhodamine-mISG15ct-propargylamide probe[1] (final concentration 1 μM) or Rhodamine-Ubiquitin-propargylamide probe[13] (final concentration 1 μM) at 37 °C for 30 min. Reactions were stopped by the addition of LDS (lithium dodecyl sulfate) sample buffer (Invitrogen Life Technologies, Carlsbad, CA, USA) containing 2.5% β-mercaptoethanol, followed by boiling for 7 minutes.
SDS-PAGE, in-gel fluorescence scanning, and immunoblotting
Samples were resolved on precast Bis-Tris NuPAGE Gels (Invitrogen, including 4-12%, and 10% for different samples) using MOPS buffer (Invitrogen Life Technologies, Carlsbad, CA, USA). For fluorescence scan, labeled enzymes were visualized by in-gel fluorescence using a Typhoon FLA 9500 imaging system (GE Healthcare Life Sciences) (Rhodamine channel for probe, Cy5 channel for protein marker).
For immunoblotting, proteins were transferred to a nitrocellulose membrane (Protan BA85, 0.45 μm, GE Healthcare) at 300 mA for 3 hours. […]

mUSP18 = biological target: T1, mUSP18 (Mus musculus, UniProt Q9WTV6); assay: kinact/KI determination (kobs plot); assay type: biochemical, murine
T1 construct: (46-368); His-tag (N); made in house
T1 sequence (Q9WTV6 46-368): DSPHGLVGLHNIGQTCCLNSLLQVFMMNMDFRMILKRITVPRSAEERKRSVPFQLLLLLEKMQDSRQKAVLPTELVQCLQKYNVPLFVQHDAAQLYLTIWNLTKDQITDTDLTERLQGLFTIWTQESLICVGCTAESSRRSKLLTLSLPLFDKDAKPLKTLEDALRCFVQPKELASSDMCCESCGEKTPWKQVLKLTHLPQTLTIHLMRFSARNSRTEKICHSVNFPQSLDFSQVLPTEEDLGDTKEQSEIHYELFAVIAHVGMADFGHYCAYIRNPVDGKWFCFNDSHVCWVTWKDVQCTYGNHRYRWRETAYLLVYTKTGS

[2] = biological target: T2, human USP18/ISG15 interaction (Homo sapiens, UniProt Q9UMW8); assay: NanoBRET assay, hUSP18/ISG15 interaction in HEK293T cells
T2 sequence (Q9UMW8 1-372): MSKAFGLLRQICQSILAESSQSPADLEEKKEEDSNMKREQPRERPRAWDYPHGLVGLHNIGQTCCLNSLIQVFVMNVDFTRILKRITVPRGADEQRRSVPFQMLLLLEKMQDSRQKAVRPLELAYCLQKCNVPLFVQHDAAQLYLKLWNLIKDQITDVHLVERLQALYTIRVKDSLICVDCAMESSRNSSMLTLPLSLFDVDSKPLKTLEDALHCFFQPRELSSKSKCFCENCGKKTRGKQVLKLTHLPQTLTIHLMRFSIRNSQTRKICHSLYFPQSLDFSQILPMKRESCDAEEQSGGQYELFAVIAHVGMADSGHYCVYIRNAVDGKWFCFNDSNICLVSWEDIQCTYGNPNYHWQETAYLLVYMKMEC
Procedure: We tested whether our USP18 activity inhibitor could also affect USP18's nonenzymatic function using our recently developed NanoBRET assay to monitor the interactions of USP18 with STAT2 and ISG15.^[ [43] ^]
normalised to the DMSO control and inhibition was assessed by fitting the data to a dose-
Data are shown as mean ± SD from one biological replicate with
three technical replicates.
Transient NanoBRET assays were performed
following the manufacturer’s instructions (Promega). Briefly, HEK293T cells were transfected
with NanoLuc and HaloTag fusion vectors at 1:100 ratio (20 ng NanoLuc and 2 µg HaloTag
plasmid). After approx. 20 h, cells were harvested, resuspended in phenol red–free Opti-MEM
media supplemented with 4% FCS, and plated in white, flat-bottom, 96-well tissue culture
Immediately before signal detection,
NanoBRET Nano-Glo substrate (Promega) was added, and luminescence was recorded using
nm (HaloTag acceptor). The corrected NanoBRET ratio (mBU) was calculated by dividing the
acceptor signal by the donor signal and subtracting the background signal obtained from the

Structure (SMILES)	concentration of maximum accumulation of ISGylation [1]	effect on cellular ISGylation [1]	kinact/KI (mUSP18)	inhibition of hUSP18/ISG15 interaction [2]
Cc1cc(C(=O)N[C@H]2C[C@@H]3CN(C#N)C[C@@H]3C2)ccc1Br [BB07CA28]	10 µM	significantly elevated cellular ISGylation		
Cc1cc(C(=O)N[C@H]2C[C@@H]3CN(C#N)C[C@@H]3C2)ccc1C(C)C [BB07CA902]	10 µM	significantly elevated cellular ISGylation	4650 M⁻¹ s⁻¹	did not observe any inhibition
